This is an account of results in patent publication US9730922B2, “Combined therapy for cystic fibrosis” (I.E.R.F.C. EUROPEAN INSTITUTE FOR CYSTIC FIBROSIS RESEARCH, priority 2012, dated 2017).

One assay concerns Cftr^F508del mice. Briefly: Cftr^F508del mice, CFTR localisation and lung inflammation. Particulars: for signs of lung inflammation: wt littermates. The class given is in vivo.
In assay [1] the target is T1, ΔF508-CFTR (Homo sapiens, UniProt P13569, DEL508-508). Nature of the assay: SPQ halide (iodide) efflux assay in freshly isolated brushed nasal epithelial cells. The class given is cell-based. More on the design: Nasal epithelial cells freshly isolated by nasal brushing from 5 CF patients carrying ΔF508/ΔF508 CFTR mutations; endogenous in cells; host or cells: primary brushed nasal epithelial cells from ΔF508/ΔF508 CF patients. Particulars: 18 h exposure, wash and reculture 24 h with medium; brushed nasal cells from ΔF508/ΔF508 patients. The text has this:
We examined whether cystamine or EUK-134 (Luciani A, 2010) would induce and sustain functional ΔF508-CFTR expression in freshly isolated brushed nasal epithelial cells from ΔF508/ΔF508 patients (Table 1A). We used primary nasal epithelial cells freshly obtained from ΔF508-CFTR homozygous patients, to directly test the efficacy of these autophagy-rescuing strategies on CFTR function in human airways. We used a fluorescent-based SPQ halide efflux assays (Silvis M R, 2009) to test the response to a short pulse of forskolin (FSK) added together with either of two different CFTR potentiators, genistein or VX-532, (Van Goor F, 2010) and analyzed at least 50 brushed nasal cells for group of treatment in each patient. Freshly isolated brushed nasal epithelial cells were incubated for 18 h with either cystamine or EUK-134 or with the well known CFTR correctors Corr-4a and VRT-325.
Nasal epithelial cells freshly isolated by nasal brushing from 5 CF patients carrying ΔF508/ΔF508 CFTR mutations (see Table 1A) and 5 non-CF age- and sex-matched controls (3 F, mean age 12.5 yrs) were immersed in washing solution (PBS, DTT 2 mM, EDTA 10 mM) at 37° C. for 1 h on thermal shaker, centrifuged at 2,300×g for 20 min and washed in PBS. The isolated cells were maintained in 1 ml MEM Earl's salt L-Glutamine medium supplemented with 10% FBS and the appropriate amount of penicillin/streptomycin.^31 Brushed nasal cells were cultured for 18 h with medium, Vrx-325, Corr-4a (10 μM up to 50 μM) (kindly provided by Cystic Fibrosis Foundation, USA), cystamine (250 μM, Sigma-Aldrich), EUK-134 (50 μg ml^−1, Vinci Biochem), followed by 24 h of incubation with medium alone.
Iodide efflux. […] Changes in CFTR-mediated SPQ fluorescence were monitored at the 445 nm wavelength in response to excitation at 340 nm during perfusion at 37° C. in nitrate buffer (NaI replaced with 130 mM NaNO3) for 10 min with 20 μM forskolin plus 50 μM genistein or 20 μM forskolin plus 20 μM VRX-532 (kindly provided by Cystic Fibrosis Foundation, USA). The peak iodide efflux rate (usually 12 min after forskolin plus genistein or forskolin plus Vrx-532) of treated or untreated cells was calculated in accordance with the Stern-Volmer relationship as follows: (Fo/F)−1=KCQ
where F is the observed fluorescence, Fo is the fluorescence in the absence of a quenching anion, CQ is the concentration of the quenching anion, and K is the Stern-Volmer quench constant. The rates were calculated using SigmaPlot Version 7.1 for each mean fluorescence trace generated from the 50 cells examined per population per coverslip.

In assay [2] the target is T1, ΔF508-CFTR. Nature of the assay: CFTR function in airway epithelial cell lines after pre-treatment, washout and pulse with potentiators. It is filed as cell-based. More on the design: airway epithelial cell lines carrying ΔF508/ΔF508 CFTR mutations; endogenous in cells. The following applies: for enabling the activity of genistein, VX-532 and VX-770 on ΔF508-CFTR: 48 h after withdrawal of the pre-treatment; for enabling the action of CFTR potentiators genistein or VX-532 in stimulating CFTR channel function: pre-treatment 18 h, washout 48 h, single pulse with potentiator, ΔF508/ΔF508 airway epithelial cell lines; for stimulating CFTR function (as potentiator): after pre-treatment with the mentioned molecules followed by 48 h of washout.
Description: To provide the rationale for the use of either TG2 inhibitors or drugs that reduce ROS levels as pre-treatment before the administration of CFTR potentiators, another experimental setting was used, where airway epithelial cell lines carrying ΔF508/ΔF508 CFTR mutations were treated with cystamine or EUK-134 or where TG2 was depleted by a small interference RNA approach or where ROS were reduced by the overexpression of the human Manganese Superoxide-dismutase (Mn-SOD).
Another experimental approach was used to test the efficacy of other pharmacological agents able to damp down TG2 and/or reduce the levels of ROS. […] These pharmacological agents were tested following the experimental approach of pre-treatment (18 h), washout (48 h) and single pulse with potentiators, in presence or absence of PA-LPS stimulation after pulse with potentiators, following the procedure above described.
Moreover, the efficacy of other molecules endowed with either ROS inhibiting activity or potentiator activity was tested.

Assay [3] has as its system ΔF508-CFTR homozygous airways. Particulars: mice in vivo and human tissues in vitro; cited from earlier work.
Assay [4] has as its system ΔF508-CFTR homozygous patients. Particulars: cited from earlier work.
Assay [5] relates to nasal polyp biopsies from ΔF508/ΔF508 patients. Nature of the assay: ex vivo cultures of nasal polyp mucosal biopsies (confocal microscopy, in situ TG2 activity). The class given is cell-based, human. On the procedure:
Nasal polyp biopsies from five ΔF508/ΔF508 patients (Table 1B) were treated with cystamine for 18 h, washed and then cultured for further 36 h in the absence of cystamine.
Next, ΔF508/ΔF508 nasal polyp biopsies were pulsed for 30 min with genistein followed by 4 h incubation with PA-LPS. […] To examine whether pre-treatment with cystamine was effective in enabling the action of genistein in human airways, nasal polyp biopsies were incubated with cystamine or medium for 18 h, then washed and kept in medium alone for 24 h and finally pulsed for 30 min with genistein followed by 4 h PA-LPS.
Human samples: ex vivo cultures of nasal polyp mucosal biopsies. Nasal polyp biopsies from 5 ΔF508 homozygous patients undergoing surgical treatment for non-allergic nasal polyposis (see Table 1B) were cultured as previously described,^7,19,32 for 18 h with medium, cystamine or EUK-134, followed by 36 h of incubation with medium alone, and then pulsed for 30 min with medium or genistein followed by 4 h of PA-LPS challenge.
Human tissue sections: five-micrometer frozen human lung tissue sections were fixed in acetone for 10 min. The sections were incubated for 2 h at room temperature with the indicated antibodies (Abs). […] The primary Abs were: CFTR 1:100 (CF3, Abcam), CFTR 1:100 (H-182, Santa Cruz Biotecnology) (used on mouse tissue), phospho-Tyr 1:200 (Santa Cruz Biotecnology), p62 1:300 (Sigma). These were followed by incubation with Alexa 488 or 546 secondary antibodies (Molecular Probe, Invitrogen). Data were analyzed under fluorescence examination by a LSM510 Zeiss confocal laser-scanning unit (Carl Zeiss, Germany).
In situ detection of TG2 exzyme activity. TG2 activity in tissue samples was detected by incubating unfixed sections with biotinylated monodansylcadaverine for 1 h at 37° C. The incorporation of labeled substrate was visualized by incubation with Alexa 546-conjugated streptavidin (1:100; Molecular Probes, Invitrogen) for 30 min.

The mark [6] stands for this setting: i.p. 7 days followed by 10 days of vehicle only.

T1 sequence (P13569 with tags, fused parts or gaps DEL508-508): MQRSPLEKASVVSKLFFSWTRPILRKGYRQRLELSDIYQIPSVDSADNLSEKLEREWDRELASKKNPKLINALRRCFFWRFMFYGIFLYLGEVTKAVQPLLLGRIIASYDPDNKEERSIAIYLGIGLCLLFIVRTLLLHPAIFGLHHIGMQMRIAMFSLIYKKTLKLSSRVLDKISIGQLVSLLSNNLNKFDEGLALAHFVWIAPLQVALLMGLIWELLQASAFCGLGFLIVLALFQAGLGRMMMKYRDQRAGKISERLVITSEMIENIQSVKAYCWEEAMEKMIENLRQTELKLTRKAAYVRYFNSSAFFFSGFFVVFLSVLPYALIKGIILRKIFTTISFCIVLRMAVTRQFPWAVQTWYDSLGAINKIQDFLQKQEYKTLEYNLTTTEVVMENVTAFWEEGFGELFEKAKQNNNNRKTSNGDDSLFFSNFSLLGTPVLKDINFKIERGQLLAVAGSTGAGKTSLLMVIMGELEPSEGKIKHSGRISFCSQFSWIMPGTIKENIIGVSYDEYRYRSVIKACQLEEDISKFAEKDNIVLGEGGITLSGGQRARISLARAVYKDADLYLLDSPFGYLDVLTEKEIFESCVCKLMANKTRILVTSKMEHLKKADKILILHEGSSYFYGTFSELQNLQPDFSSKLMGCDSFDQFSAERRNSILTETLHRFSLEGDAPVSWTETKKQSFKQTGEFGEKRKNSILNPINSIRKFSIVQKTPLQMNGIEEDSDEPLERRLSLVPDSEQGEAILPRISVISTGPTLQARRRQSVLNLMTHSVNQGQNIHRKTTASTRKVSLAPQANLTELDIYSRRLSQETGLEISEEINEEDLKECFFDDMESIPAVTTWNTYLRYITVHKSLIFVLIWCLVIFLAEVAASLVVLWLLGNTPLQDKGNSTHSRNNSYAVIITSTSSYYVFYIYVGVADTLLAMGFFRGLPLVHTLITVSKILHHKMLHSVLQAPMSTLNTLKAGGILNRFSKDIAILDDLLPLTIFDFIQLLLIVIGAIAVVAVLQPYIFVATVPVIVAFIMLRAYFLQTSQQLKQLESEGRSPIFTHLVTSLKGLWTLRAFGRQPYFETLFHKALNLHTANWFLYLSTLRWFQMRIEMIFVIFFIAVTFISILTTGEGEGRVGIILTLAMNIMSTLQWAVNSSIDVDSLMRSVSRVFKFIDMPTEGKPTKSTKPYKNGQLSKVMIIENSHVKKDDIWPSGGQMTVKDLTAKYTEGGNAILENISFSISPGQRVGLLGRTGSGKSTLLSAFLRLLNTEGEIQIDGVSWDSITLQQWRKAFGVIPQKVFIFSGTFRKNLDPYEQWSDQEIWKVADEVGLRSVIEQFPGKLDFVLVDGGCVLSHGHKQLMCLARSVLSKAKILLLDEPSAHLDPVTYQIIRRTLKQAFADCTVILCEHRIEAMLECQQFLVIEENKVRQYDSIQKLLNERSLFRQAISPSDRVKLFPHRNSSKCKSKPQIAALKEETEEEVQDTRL

For `Cn1cnc(N)c2ncnc1-2` [3-MA], the “effects of cystamine (ΔF508 re-location, reduced lung inflammation) with co-treatment during the phase of withdrawal” value in the assay on Cftr^F508del mice (intraperitoneal treatment during the withdrawal phase) is recorded as “abrogated”.

For `COc1ccc(Cl)cc1Nc1nc(-c2sc(NC(=O)c3ccccc3)nc2C)cs1` [Corr-4a], on ΔF508-CFTR [1], the “ΔF508-CFTR response to a short pulse of forskolin plus genistein or VX-532 (SPQ halide efflux)” value (“ΔF508-CFTR response to a short pulse” for short) was “only had scarce effects”.

Consider `COc1cccc(C=NCCN=Cc2cccc(OC)c2[O-])c1[O-].[Cl-].[Mn+3]` [EUK-134], for which, on ΔF508-CFTR [2], the “enabling the activity of genistein, VX-532 and VX-770 on ΔF508-CFTR” value is “enables the activity of the CFTR potentiators genistein and VX-532 as well as of the well known CFTR potentiator VX-770”; the “enabling the action of CFTR potentiators genistein or VX-532 in stimulating CFTR channel function” value is listed as “similarly effective in enabling the action of CFTR potentiators”. Besides, on ΔF508-CFTR [1], the “ΔF508-CFTR response to a short pulse” value is on record as “rendered the cells capable of conserving ΔF508-CFTR response”. Moreover, the “inflammation in ΔF508-CFTR homozygous airways” value in assay [3] is “blunts inflammation”.

Regarding `COc1ccc(S(=O)(=O)N2CCN(C(C)c3nc(OC4CCCCC4)c4ccccc4n3)CC2)cc1` (centres unmarked) [VRT-325], the “ΔF508-CFTR response to a short pulse” value at ΔF508-CFTR [1] was “only had scarce effects”.

For `Cc1ccc(NC(=O)C2(c3ccc4c(c3)OC(F)(F)O4)CC2)nc1-c1cccc(C(=O)O)c1` [VX-809], in assay [4], the “lung function or CF complications” value was “no improvement” and the sweat chloride entry is listed as “modest dose-dependent reductions”.

`CC(=O)N[C@@H](CS)C(=O)O` [acetylcysteine]: the “inflammation in ΔF508-CFTR homozygous airways” value in assay [3] is listed as “blunts inflammation”.

As for `O=c1cc(-c2ccc(O)cc2)oc2cc(O)cc(O)c12` [apigenin], the “stimulating CFTR function (as potentiator)” value (from here on “stimulating CFTR function”) at ΔF508-CFTR [2] is “as effective as genistein in stimulating CFTR function”.

As to `NCCSSCCN` [cystamine], the “reduction of signs of mucosal inflammation (TG2 activation and protein tyrosine phosphorylation)” value in assay [5] (cystamine 18 h, washed, 36 h washout) is recorded as “persisted after 36 h of washout”. Also, the “rescue of CFTR at the epithelial surface (confocal microscopy)” value in assay [5] (cystamine 18 h, washed, 36 h without cystamine) is “persisted for 36 h after cystamine withdrawal”. In the assay on Cftr^F508del mice (daily inhalations of aerosolized 0.2 mg/mouse/day for one week), the lung inflammation result is “reduced lung inflammation”. Also, in the assay on Cftr^F508del mice (setting [6]), the “re-location of ΔF508 protein at the respiratory epithelial surface” value is given as “persisted for 10 days after cystamine withdrawal” and the reducing lung inflammation result was “persisted for 10 days after cystamine withdrawal”. In addition, the “signs of lung inflammation” value in the assay with Cftr^F508del mice was “not effective”. Besides, on ΔF508-CFTR [2], the “enabling the activity of genistein, VX-532 and VX-770 on ΔF508-CFTR” value is “enables the activity of the CFTR potentiators genistein and VX-532 as well as of the well known CFTR potentiator VX-770”; the “enabling the action of CFTR potentiators genistein or VX-532 in stimulating CFTR channel function” value was “similarly effective in enabling the action of CFTR potentiators”. In addition, the “ΔF508-CFTR response to a short pulse” value at ΔF508-CFTR [1] is on record as “rendered the cells capable of conserving ΔF508-CFTR response”. Moreover, in assay [3], the “inflammation in ΔF508-CFTR homozygous airways” value was “blunts inflammation”.

In the case of `Oc1cc(O)c2c(c1)O[C@H](c1cc(O)c(O)c(O)c1)[C@H](O)C2` [epigallocatechin], the “stimulating CFTR function” value at ΔF508-CFTR [2] is “as effective as genistein in stimulating CFTR function”.

Take `O=c1c(-c2ccc(O)cc2)coc2cc(O)cc(O)c12` [genistein]: the epithelial protein phosphorylation result in assay [5] (30 min pulse followed by 4 h PA-LPS, no pre-treatment) is reported as “not effective in reducing epithelial protein phosphorylation”. Also, the “signs of lung inflammation after genistein pulse and aerosolized PA-LPS” value was “had no effect on its own” with Cftr^F508del mice (mice not pretreated with cystamine) and “significantly reduced the signs of lung inflammation” in the assay with Cftr^F508del mice (mice pre-treated with aerosolized cystamine one week, one week without treatment). For the same compound, in the assay on Cftr^F508del mice, the “signs of lung inflammation” value is reported as “not effective”.

In the case of `O=c1c(O)c(-c2ccc(O)c(O)c2)oc2cc(O)cc(O)c12` [quercetin], at ΔF508-CFTR [2], the “stimulating CFTR function” value is on record as “as effective as genistein in stimulating CFTR function”.

Turning to `COc1cc(C2Oc3cc([C@H]4Oc5cc(O)cc(O)c5C(=O)[C@@H]4O)ccc3OC2CO)ccc1O` (some centres unmarked) [silybin], the “stimulating CFTR function” value on ΔF508-CFTR [2] was “as effective as genistein in stimulating CFTR function”.

As for catechin, the “stimulating CFTR function” value on ΔF508-CFTR [2] is “as effective as genistein in stimulating CFTR function”.
